Patent US5635486A, “Ophthalmic composition comprising a sleep adjusting substance” (priority 1990, dated 1997)
Like-named read-outs stand apart in the source and are kept apart here.

Experiments:
[1] = cited from earlier work; for sleep effect: species and route not stated
[2] = into a lateral ventricle, rat; cited from earlier work
mice = experiment: Locomotor activity of mice after instillation of ophthalmic medicament to the eye (Automex, total activity ratio per hour vs saline); assay type: in vivo, mouse (ICR male); details: for total activity ratio / time when the mice started to move / pain or itch in the eyes as cause of the sleep inhibition / locomotor activity (in words) / Total Activity ratio per hour: instilled to mouse eye; for sleep inducing or inhibiting activity (in words): by instillation to mouse eye; for Total Activity ratio per hour: 19:30-20:30
Method: Three ICR male mice were put in a cage and bred under the condition of a day-and-night cycle of every 12 hours (the daytime: from 7:35 to 19:35; the nighttime: from 19:35 to 7:35) for an experiment.
In this manner, the mice were habituated to the instillation by administering the saline every day. After the same activity pattern appeared for two days continuously, an ophthalmic medicament containing a desired sleep adjusting substance was instilled for consecutive two days. The ophthalmic medicament was prepared by dissolving the sleep adjusting substance in saline. […] The locomotor activity (unit: count) of mice was measured every 10 minutes by using a measuring device for the locomotor activity of an experimental animal "Automex" (produced by Tokai Irika). The locomotor activity was measured by putting a mouse on the measuring device. Every time any of the mice moved, a counter of the device cumulated the number of the movements. Thus, the larger cumulated number reflected more energetic activity. Such a measurement was conducted twice (for two days). An average value of the locomotor activity at each time was calculated and the results were plotted to obtain a graph, with time as the abscissas and the average locomotor activity as the ordinates. This graph depicts an activity pattern of the mice as a function of an administration of the ophthalmic medicament. A total of the locomotor activity (i.e., an area below the curve in the graph) per one hour between 19: 30 which is 30 minutes after the administration and 20:30 was calculated. In the same manner, as for the mice with the administration of saline alone, a total locomotor activity per the same one hour period as above was calculated. The ratio (%) of the calculated total locomotor activity per one hour of the mice with saline alone to that of the mice with the administration of the ophthalmic medicament (hereinafter called the "total activity ratio") was obtained. The mice whose activity patterns were not stable during the habituation to the administration of saline were not used in the following examples.

[3] = into a cerebral ventricle, rabbit; cited from earlier work
human = details: cited from earlier work
animal = details: in an animal; cited from earlier work
[4] = cited from earlier work
[5] = cited from earlier work; remark: listed apart in the source
[6] = injected into an eyeball; axonal flow; cited from earlier work
neurons = details: cited from earlier work
[7] = administered into a cerebral ventricle

For `CCCCC[C@H](O)/C=C/[C@H]1[C@H](O)CC(=O)[C@@H]1C/C=C\CCCC(=O)O` [PGE2, prostaglandin E2], the sleep effect [1] is listed as “inhibits sleep” and the sleep effect ([1]; listed as prostaglandin E2) is listed as “sleep inhibiting activity”.
In the case of `Nc1ncnc2c1ncn2[C@@H]1O[C@H](CO)[C@@H](O)[C@H]1O` [Adenosine, adenosine], the sleep effect [2] is listed as “induce non-REM sleep”.
For `C1CCNCC1` [Piperidine, piperidine], the total activity ratio (mice; 100 μM, vs saline control) is listed as 72% and the sleep effect [1] is listed as “sleep inducing activity”.
In the case of `CCCCC[C@H](O)/C=C/[C@H]1C(=O)C[C@H](O)[C@@H]1C/C=C\CCCC(=O)O` [PGD2, prostaglandin D2], the “time when the mice started to move” value (mice; 100 μM) is listed as “shifted backward”, the total activity ratio (mice; 100 μM, vs saline control) is listed as 78% and the sleep effect [1] is listed as “strong sleep inducing substance”.
In the case of delta-sleep-inducing peptide [DSIP], the sleep effect [3] is listed as “induce sleep”, the “sleep inducing or inhibiting activity (in words)” value (mice; 100 μM) is listed as “exerted a sleep inhibiting activity” and the “pain or itch in the eyes as cause of the sleep inhibition” value (mice; 100 μM) is listed as “certainly not due to any pain or itch in the eyes”. The total activity ratio (mice; 100 μM in saline containing 0.1% bovine serum albumin) was 130% and the anti-stress activity (human; administered to a human) was “anti-stress activity such as causing sleep inhibition”.
In the case of arginine vasotocin [AVT], the sleep effect (human; in a human) is given as “REM sleep”, the “amount of serotonin in the brain” value ([1]; mechanism of sleep induction) is given as “increasing the amount of serotonin in the brain” and the sleep effect (animal) is given as “induces non-REM sleep”.
For `N[C@@H](Cc1c[nH]c2ccccc12)C(=O)O` [tryptophan], the “effectiveness of oral administration” value [4] is given as “somewhat effective”.
For `O=c1cc[nH]c(=O)[nH]1` [Uracil, uracil, reference compound], the “locomotor activity (in words)” value (mice; 100 μM) was “did not decrease”.
In the case of `Nc1ccn([C@@H]2O[C@H](CO)[C@@H](O)[C@H]2O)c(=O)n1` [cytidine], the “sleep inducing or inhibiting activity (in words)” value (mice; 100 μM) is reported as “can inhibit sleep”, the “locomotor activity (in words)” value (mice; 100 μM) is reported as “completely disappeared temporarily after the instillation” and the “pain or itch in the eyes as cause of the sleep inhibition” value (mice; 100 μM) is reported as “not caused by a pain or an itch in the eyes”. For the same compound, the “time when the mice started to move” value (mice; 100 μM) was “advanced”, the total activity ratio (mice; 100 μM, vs saline control) was 127% and the arousal hours [5, 7] was “increase arousal hours”. The total sleep hours [5, 7] was “decrease total sleep hours”.
In the case of “horseradish peroxidase: an enzyme with a molecular weight of about 40,000, frequently used as a tracer”, the “uptake by ganglion cells and transport to the suprachiasmatic nucleus” value [6] is listed as “uptaken by the ganglion cells, and then transported to the suprachiasmatic nucleus through the axonal flow”.
In the case of `O=c1ccn([C@@H]2O[C@H](CO)[C@@H](O)[C@H]2O)c(=O)[nH]1` [Uridine, uridine], the “sleep inducing or inhibiting activity (in words)” value (mice; 100 μM) is reported as “showed a sleep inducing activity”, the “Total Activity ratio per hour” value (mice; 10 μM) is reported as 63 % of control and the “Total Activity ratio per hour” value (mice; 30 μM) is reported as 57 % of control. For the same compound, the “locomotor activity (in words)” value (mice; 100 μM) was “remarkably decreased”, the “time when the mice started to move” value (mice; 100 μM) was “shifted backward” and the “Total Activity ratio per hour” value (mice; 100 μM) was 53 % of control. For the same compound, the “excitation of the neurons” value (neurons) was “induces or inhibits excitation of the neurons” and the sleep effect ([5]; injection of only 10 pmole into a cerebral ventricle) was “induces non-REM sleep”.
